# Experimental data as given in PMC12638379, “An innovative approach to development of new pyrazolylquinolin-2-one hybrids as dual EGFR and BRAF^V600E inhibitors” (Molecular Diversity, 2025).
# Where two headings read alike, the source gives them in different places.
# Tested on: NCI 60 cancer cell lines
# Assay: NCI anticancer screening over a panel of 60 cancer cells, single concentration 10 µM
# Type: cell-based, human
# Conditions: Homo sapiens, read-out: % Growth Inhibition (GI %)
# Procedure, shortened: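 Primary single-dose screen at 10 µM over the NCI panel of 60 human tumour cell lines (leukemia, CNS, lung, colon, kidney, ovary, breast, prostate). The standard NCI Developmental Therapeutics Program protocol was used.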
compound,measurement,setting,value
"C/C(=N\Nc1ccc(C(=O)O)cc1)c1cnn(-c2cc(=O)[nH]c3ccc(Cl)cc23)c1C [Compound 4i, (E)-4-(2-(1-(1-(6-chloro-2-oxo-1,2-dihydroquinolin-4-yl)-5-methyl-1H-pyrazol-4-yl)ethylidene)hydrazineyl)benzoic acid]",inhibition at 10 µM,"786-0, Renal cancer 786-0, 10 μM",< 5%
same,inhibition at 10 µM,"A498, Renal cancer A498, 10 μM",< 5%
same,inhibition at 10 µM,"A549, Non-small cell lung cancer A549/ATCC, 10 μM",< 5%
same,inhibition at 10 µM,"ACHN, Renal cancer ACHN, 10 μM",< 5%
same,inhibition at 10 µM,"BT-549, Breast cancer BT-549, 10 μM",< 5%
same,inhibition at 10 µM,"CAKI-1, Renal cancer CAKI-1, 10 μM",10.8%
same,inhibition at 10 µM,"CCRF-CEM, Leukemia CCRF-CEM, 10 μM",< 5%
same,inhibition at 10 µM,"COLO 205, Colon cancer COLO 205, 10 μM",< 5%
same,inhibition at 10 µM,"DU-145, Prostate cancer DU-145, 10 μM",< 5%
same,inhibition at 10 µM,"EKVX, Non-small cell lung cancer EKVX, 10 μM",< 5%
same,inhibition at 10 µM,"HCC 2998, Colon cancer HCC-2998, 10 μM",< 5%
same,inhibition at 10 µM,"HCT-15, Colon cancer HCT-15, 10 μM",< 5%
same,inhibition at 10 µM,"HCT-116, Colon cancer HCT-116, 10 μM",< 5%
same,inhibition at 10 µM,"HL-60, Leukemia HL-60(TB), 10 μM",5.88%
same,inhibition at 10 µM,"HOP-62, Non-small cell lung cancer HOP-62, 10 μM",< 5%
same,inhibition at 10 µM,"HOP-92, Non-small cell lung cancer HOP-92, 10 μM",36.7%
same,inhibition at 10 µM,"HT-29, Colon cancer HT29, 10 μM",< 5%
same,inhibition at 10 µM,"Hs-578T, Breast cancer HS 578T, 10 μM",6.25%
same,inhibition at 10 µM,"IGROV-1, Ovarian cancer IGROV1, 10 μM",< 5%
same,inhibition at 10 µM,"K562, Leukemia K-562, 10 μM",7.48%
same,inhibition at 10 µM,"KM12, Colon cancer KM12, 10 μM",< 5%
same,inhibition at 10 µM,"LOX IMVI, Melanoma LOX IMVI, 10 μM",< 5%
same,inhibition at 10 µM,"Leukemia SR, 10 μM",< 5%
same,inhibition at 10 µM,"MCF7, Breast cancer MCF7, 10 μM",8.38%
same,inhibition at 10 µM,"MDA-MB-231, Breast cancer MDA-MB-231/ATCC, 10 μM",12.9%
same,inhibition at 10 µM,"MDA-MB-435, Melanoma MDA-MB-435, 10 μM",< 5%
same,inhibition at 10 µM,"MDA-MB-468, Breast cancer MDA-MB-468, 10 μM",< 5%
same,inhibition at 10 µM,"MOLT-4, Leukemia MOLT-4, 10 μM",< 5%
same,inhibition at 10 µM,"Melanoma M14, 10 μM",< 5%
same,inhibition at 10 µM,"Melanoma MALM-3M, 10 μM",19.4%
same,inhibition at 10 µM,"NCI-H23, Non-small cell lung cancer NCI-H23, 10 μM",< 5%
same,inhibition at 10 µM,"NCI-H226, Non-small cell lung cancer NCI-H226, 10 μM",< 5%
same,inhibition at 10 µM,"NCI-H322M, Non-small cell lung cancer NCI-H322M, 10 μM",< 5%
same,inhibition at 10 µM,"NCI-H460, Non-small cell lung cancer NCI-H460, 10 μM",< 5%
same,inhibition at 10 µM,"NCI-H522, Non-small cell lung cancer NCI-H522, 10 μM",< 5%
same,inhibition at 10 µM,"NCI/ADR-RES, Ovarian cancer NCI/ADR-RES, 10 μM",< 5%
same,inhibition at 10 µM,"OVCAR-3, Ovarian cancer OVCAR-3, 10 μM",< 5%
same,inhibition at 10 µM,"OVCAR-4, Ovarian cancer OVCAR-4, 10 μM",< 5%
same,inhibition at 10 µM,"OVCAR-5, Ovarian cancer OVCAR-5, 10 μM",< 5%
same,inhibition at 10 µM,"OVCAR-8, Ovarian cancer OVCAR-8, 10 μM",< 5%
same,inhibition at 10 µM,"Prostate cancer PC-3, 10 μM",< 5%
same,inhibition at 10 µM,"RPMI-8226, Leukemia RPMI-8226, 10 μM",< 5%
same,inhibition at 10 µM,"RXF 393, Renal cancer RXF 393, 10 μM",< 5%
same,inhibition at 10 µM,"SF-268, CNS Cancer SF-268, 10 μM",< 5%
same,inhibition at 10 µM,"SF-295, CNS Cancer SF-295, 10 μM",< 5%
same,inhibition at 10 µM,"SF-539, CNS Cancer SF-539, 10 μM",< 5%
same,inhibition at 10 µM,"SK-MEL-2, Melanoma SK-MEL-2, 10 μM",< 5%
same,inhibition at 10 µM,"SK-MEL-5, Melanoma SK-MEL-5, 10 μM",< 5%
same,inhibition at 10 µM,"SK-MEL-28, Melanoma SK-MEL-28, 10 μM",< 5%
same,inhibition at 10 µM,"SK-OV-3, Ovarian cancer SK-OV-3, 10 μM",5.11%
same,inhibition at 10 µM,"SN12C, Renal cancer SN12C, 10 μM",< 5%
same,inhibition at 10 µM,"SNB-19, CNS Cancer SNB-19, 10 μM",< 5%
same,inhibition at 10 µM,"SNB-75, CNS Cancer SNB-75, 10 μM",5.56%
same,inhibition at 10 µM,"SW-620, Colon cancer SW-620, 10 μM",< 5%
same,inhibition at 10 µM,"T47D, Breast cancer T-47D, 10 μM",6.23%
same,inhibition at 10 µM,"TK-10, Renal cancer TK-10, 10 μM",< 5%
same,inhibition at 10 µM,"U-251, CNS Cancer U251, 10 μM",< 5%
same,inhibition at 10 µM,"UACC-62, Melanoma UACC-62, 10 μM",6.04%
same,inhibition at 10 µM,"UACC-257, Melanoma UACC-257, 10 μM",< 5%
same,inhibition at 10 µM,"UO-31, Renal cancer UO-31, 10 μM",29.1%
